What was measured:
Thermal properties (Td) = format: physicochemical; settings: thermal property of the PAG
[1] = Optical properties: absorptivity at 248 nm in acetonitrile; format: physicochemical; settings: Measured in acetonitrile

Structure (SMILES) | Td (Thermal properties (Td)) [°C] | ε248 [1] [cm^2 · mol^-1]
O=S(=O)(O)C(F)(F)C(F)(F)OC(F)(F)C(F)(F)C1CC2CCC1C2 (centres unmarked) | 164 | 5220
O=S(=O)(O)C(F)(F)C(F)(F)CCCl | 205 | –
O=S(=O)(O)C(F)(F)C(F)(F)Oc1ccccc1 | 190 | 6015
O=C1CCC(CC(F)(F)C(F)(F)OC(F)(F)C(F)(F)S(=O)(=O)O)O1 (centres unmarked) | 165 | 5400
O=S(=O)(O)C(F)(F)C(F)(F)C(F)(F)C(F)(F)F | – | 4200

Reference: patent publication US8268531B2, “Photoacid generator compounds and compositions” (Cornell Research Foundation, Inc., priority 2008, dated 2012)
